# Laboratory results published in patent publication US6689803B2, “Compositions and methods for treating surgical adhesions” (Angiotech Pharmaceuticals, Inc., priority 1996, dated 2004).
# Where two headings read alike, the source gives them in different places.
# Assays:
# TR1 T-cell clones = assay: T cell response to antigenic stimulus (tritiated thymidine incorporation); format: cell-based; details: micellar formulation; GP68-88 or conA; added at start or 24 hours after stimulation; 48 hours
# Protocol: Tritiated thymidine incorporation was determined as a measure of T-cell proliferation in response to peptide or conA stimulation.
# human keratinocytes = assay: Keratinocyte viable cell number (trypan blue exclusion); format: cell-based; details: 4 days
# Protocol: Following incubation, cells were collected and counted by the trypan blue exclusion assay.
# synoviocytes = assay: Proliferation assay (MTT); format: cell-based; details: 24-hour exposure
# Protocol: On day one, 5-10×10^4 synoviocytes were plated per well (96-well plate). Column #1 was kept free of cells (blank). On day 2, the plate was flicked to discard the medium and 200 μl of medium containing various concentrations of drug was added. […] There was no drug added to columns #1 and #2 (blank and untreated control, respectively). The medium containing the drug was discarded and 200 μl of fresh complete medium was added. The cells were then left to grow for an additional 3 to 4 days. On day five, 20 μl of dimethylthiazol diphenyltetrazolium bromide salt (MTT) (5 mg/ml PBS) was added and allowed to incubate for 4 hours at 37° C. The medium was decanted and 200 μl of DMSO was added.
# The data were expressed as the % of survival which was obtained by dividing the number of cells remaining after treatment by the number of cells in the untreated control column #2 (the number of cells was obtained from a standard done prior to the assay).
# [1] = system: AP-1 transcriptional activity; assay: IL-1 stimulated AP-1 driven CAT reporter gene in chondrocytes; format: cell-based; details: 10^−7 to 10^−5 M
# Source text: The data noted with an asterisk (*) have significance compared with IL-1-induced CAT activity according to a t-test, P<0.05. The results shown are representative of three independent experiments.
# stromelysin (MMP-3) mRNA = assay: IL-1 induced stromelysin mRNA expression in chondrocytes (Northern blot); format: cell-based
# Source text: The blots were subsequently stripped and reprobed with ^32P-radiolabeled rat GAPDH cDNA, which was used as a housekeeping gene. […] The MMP-1 and MMP-3 expression levels were normalized with GAPDH.
# LNCaP cells = assay: LNCaP cell growth (crystal violet); format: cell-based, human; details: Homo sapiens, LNCaP, 120 h; 5 days; read-out: EC50
# Protocol: LNCaP cells were seeded at concentrations of 2×10^3 and 1×10^3 cells/well respectively in 96 well plates. […] After incubation, the cells were fixed with 1% glutaraldehyde solution, and stained for 5 minutes with 0.5% crystal violet. The dye was successively eluted with 100 μl of buffer solution and the absorbance was read on a Titertek Multiskan microplate reader using a wavelength of 492 nm Absorbance. Cell growth was expressed as a percentage relative to control wells in the absence of the compound (set at 100%).
# [2] = Solubility / complexation of paclitaxel with cyclodextrins; format: physicochemical
# Protocol: The mobile phase was composed of a mixture of acetonitrile, methanol and water (58:5:37) at a flow rate of 1.0 ml/minute.
# [3] = Stability of paclitaxel in cyclodextrin solutions; format: physicochemical
# Source text: The solutions containing 20% HPβCD or HPγCD had pH values of 3.9 and 5.2, respectively.
# MS symptoms = assay: Demyelinating DM20 (ND4) transgenic mouse model of MS; format: in vivo; parameters: key to Seizures / Shaking / Hind Limb Paralysis / Head Tremors: 1+: slight but definite signs; 2+: increase in severity; 3+: signs worsened with limited movement; 4+: very severe signs with loss of motor control (moribund); details: micellar paclitaxel 2.5 mg/kg s.c. 3 times per week, 7 injections
# Source text: These transgenic mice contain 70 copies of the transgene DM20, a myelin proteolipid. Clinically, the animals appear normal up to 3 months of age. After 3 months, evidence of neurological pathology, such as seizures, shaking, hind limb mobility, unsteadiness of gait, limp tail, wobbly gait and reduction in the degree of activity, appear and progressively increase in severity until the animals die between 6 and 8 months of age.
# For both of these sets of experiments, dosing was initiated at the clinical onset of disease (approximately 3 to 4 months of age).
# Animals were injected with the first dose once the initial signs of MS had reached a score of 1+ for the symptom categories described. The clinical scores and body weight were determined on each injection day and continued three times a week until the end of the study period (6 months of age). Scoring was based on a 1+ to 4+ system, whereby 1+=slight but definite signs, 2+=increase in severity, 3+=signs worsened with limited movement and 4+=very severe signs with loss of motor control (moribund).
# Three additional transgenic mice were used as controls and received an equivalent dose of PBS. […] Furthermore, four normal mice were used as controls and administered equivalent volumes of PBS.
# [4] = system: chick chorioallantoic membrane (CAM) vasculature; details: for CAM vasculature: 2-day exposure
# synovial fibroblasts = assay: Synoviocyte proliferation (trypan blue dye exclusion); details: 24 hours
# [5] = transgenic mice, 6 months of age
structure (smiles),measurement,setting,value
CC(=O)O[C@H]1C(=O)[C@@]2(C)[C@H]([C@H](OC(=O)c3ccccc3)[C@]3(O)C[C@H](OC(=O)[C@H](O)[C@@H](NC(=O)c4ccccc4)c4ccccc4)C(C)=C1C3(C)C)[C@]1(OC(C)=O)CO[C@@H]1C[C@@H]2O [paclitaxel],concentration at which T-cell proliferation was (completely) inhibited,TR1 T-cell clones,0.02 µM
same,cell viability,human keratinocytes; 10^−7 M or higher,significant drop in cell viability
same,cell viability,human keratinocytes; 10^−8 M,87 % of untreated controls
same,cell viability,human keratinocytes; 10^−9 M,greater than 100 % of untreated controls
same,IC50,synoviocytes,~30 nM
same,IL-1 induced AP-1 reporter gene CAT activity,[1],reduced in chondrocytes by paclitaxel in a concentration dependent manner
same,concentration inhibiting stromelysin expression in vitro,stromelysin (MMP-3) mRNA,10^−6 M
same,stromelysin mRNA levels,"stromelysin (MMP-3) mRNA; 10^−5 M, pretreatment 24 hours, IL-1",complete inhibition
same,EC50,LNCaP cells,~0.09 nM
same,solubility,"[2]; 50% HPβ-CD in water, aqueous with cosolvent or surfactant or cyclodextrin, thermodynamic from solid, 50% solution of HPβ-CD in water, 37° C.",3200 µg/mL
same,increase over the solubility of paclitaxel in water,"[2]; 50% solution of HPβ-CD in water, 37° C.",~2000 fold
same,apparent stability constant,[2]; HPβ-CD in the presence of 50% ethanol,26.57 M⁻¹
same,"stability constant, first order complex","[2]; HPβ-CD, 37° C.",7.2 M⁻¹
same,stability constant lower than in the absence of ethanol,"[2]; HPβ-CD, 50% ethanol",about 300 times
same,"stability constant, first order complex","[2]; HPγ-CD, 37° C.",5.8 M⁻¹
same,"stability constant, first order complex","[2]; γ-CD, 37° C.",3.1 M⁻¹
same,degradation rate constant k,"[3]; 1 μg/ml paclitaxel, 1% HPβ-CD, 55° C.",0.00338 h⁻¹
same,degradation rate constant,"[3]; 10% HPβ-CD (FIG. 42: 20 μg/ml, 37° C., pH 3.7)",0.00178 h⁻¹
same,degradation rate constant,"[3]; 10% HPγ-CD (FIG. 42: 20 μg/ml, 37° C., pH 4.9)",0.00096 h⁻¹
same,Head Tremors,MS symptoms; normal mice,0
same,Hind Limb Paralysis,MS symptoms; normal mice,0
same,Seizures,MS symptoms; normal mice,0
same,Shaking,MS symptoms; normal mice,0
same,Weight Change,MS symptoms; normal mice,−0-5%
same,Weight Change,MS symptoms; transgenic mice,+5-10%
same,Head Tremors,MS symptoms; [5],1+
same,Hind Limb Paralysis,MS symptoms; [5],1+
same,Seizures,MS symptoms; [5],1+
same,Shaking,MS symptoms; [5],1+
same,CAM vasculature,"[4]; 5% paclitaxel-loaded PCL microspheres, 1 mg",marked vascular regression and zones which were devoid of a capillary network
same,diameter of avascular areas,[4]; 48 hour exposure to 10 μg paclitaxel per 10 ml of methylcellulose,approximately 6 mm
same,avascular zones did not revascularize for,[4]; after application,at least 7 days
same,inhibition of angiogenesis occurs as early as,[4]; after application,9 h
same,avascular gradient scale,"[4]; maximal avascular zone within 48 hours depending on concentration, methylcellulose disk",3
same,Inhibition/n,"[4]; micellar solution (10 ul), 10%",too toxic
same,CAM vasculature,"[4]; paclitaxel-gelatin-PCL paste, 1 mg pieces",consistently showed vascular regression and zones which lacked a capillary network
same,maximal avascular zone diameter,"[4]; within 48 hours depending on concentration, methylcellulose disk",6 mm
same,toxicity to synovial fibroblasts,synovial fibroblasts; 10^−6 M and 10^−5 M,toxic
same,inhibiting proliferation of the synoviocytes at concentrations as low as,synovial fibroblasts,10^−7 M
